Experimental data published in ChEMBL document CHEMBL1201862, “PubChem BioAssay data set” (2004).
Calls of active or inactive are those of the source.

How the values were obtained:
HEK293 [1] = assay: cells; details: Homo sapiens
HEK293 [2] = assay: cells; type: functional, cell-based; details: Homo sapiens
HEK293 [3] = assay: NOD2 signaling inhibitors in MDP-stimulated cells, cell-based, uHTS, luminescence (AID 2001); type: functional; details: Homo sapiens
HEK293 [4] = assay: inhibition of NOD1-driven NF-kB reporter – cell-based, luminescence, uHTS, primary screen (AID 1578); type: functional; details: Homo sapiens
[5] = target: T1, Nucleotide-binding oligomerization domain-containing protein 1 (Homo sapiens, UniProt Q9Y239); assay: blockers of NOD1 pathway activity – revised, SAR follow-up (AID 2333); type: functional
T1 sequence (Q9Y239 whole entry): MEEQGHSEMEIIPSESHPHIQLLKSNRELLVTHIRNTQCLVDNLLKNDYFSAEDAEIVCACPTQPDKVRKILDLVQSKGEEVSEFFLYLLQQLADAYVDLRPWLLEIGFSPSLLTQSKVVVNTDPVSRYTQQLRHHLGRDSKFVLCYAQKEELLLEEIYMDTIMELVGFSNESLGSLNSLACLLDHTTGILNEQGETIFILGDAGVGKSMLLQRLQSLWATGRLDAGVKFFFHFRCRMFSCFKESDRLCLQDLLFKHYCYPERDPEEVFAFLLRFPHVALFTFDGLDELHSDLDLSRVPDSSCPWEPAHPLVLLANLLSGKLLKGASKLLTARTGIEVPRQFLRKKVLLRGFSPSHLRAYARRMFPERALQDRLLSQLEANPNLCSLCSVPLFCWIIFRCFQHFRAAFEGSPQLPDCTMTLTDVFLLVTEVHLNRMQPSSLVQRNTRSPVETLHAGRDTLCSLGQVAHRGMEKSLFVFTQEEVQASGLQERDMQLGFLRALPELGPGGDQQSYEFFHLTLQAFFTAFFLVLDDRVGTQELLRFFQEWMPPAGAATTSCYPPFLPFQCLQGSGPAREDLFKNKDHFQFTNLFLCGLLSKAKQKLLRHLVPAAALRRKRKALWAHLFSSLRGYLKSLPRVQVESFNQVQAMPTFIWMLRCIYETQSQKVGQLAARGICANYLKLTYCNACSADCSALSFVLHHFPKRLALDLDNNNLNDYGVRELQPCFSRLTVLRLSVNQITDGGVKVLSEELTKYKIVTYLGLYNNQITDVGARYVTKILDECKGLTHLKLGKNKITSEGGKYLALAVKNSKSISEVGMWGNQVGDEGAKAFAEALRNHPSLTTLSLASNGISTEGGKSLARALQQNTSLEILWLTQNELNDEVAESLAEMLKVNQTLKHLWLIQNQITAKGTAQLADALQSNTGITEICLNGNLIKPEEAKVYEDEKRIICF

X-box-binding protein 1 = target: T2, X-box-binding protein 1 (Homo sapiens, UniProt P17861); type: functional, Cricetulus griseus;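 further: confirmatory dose-response counter-screen serving a CHOP assay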
T2 sequence (P17861 whole entry): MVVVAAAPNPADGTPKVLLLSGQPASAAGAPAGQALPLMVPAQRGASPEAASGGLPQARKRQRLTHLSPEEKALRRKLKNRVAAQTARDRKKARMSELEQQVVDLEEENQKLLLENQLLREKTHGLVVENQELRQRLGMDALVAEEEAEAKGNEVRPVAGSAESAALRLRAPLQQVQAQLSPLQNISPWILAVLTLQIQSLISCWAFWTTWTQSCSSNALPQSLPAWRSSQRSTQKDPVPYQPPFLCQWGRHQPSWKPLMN

[6] = target: Nucleotide-binding oligomerization domain-containing protein 2 (Homo sapiens, UniProt Q9HC29); assay: inhibition of NOD2-driven NF-kB reporter – cell-based, luminescence, uHTS, HEK293 (AID 1566); type: functional
HEK293 [7] = assay: cells; type: functional, cell-based; details: Homo sapiens; remark: listed apart in the source
Tumor necrosis factor = Tumor necrosis factor (Homo sapiens, UniProt P01375); assay: analog potency on TNFa NF-kB signaling – cell-based, revised, SAR follow-up (AID 2337); type: functional
HEK293 [8] = assay: cells; type: functional, cell-based; details: Homo sapiens; remark: listed apart in the source
[9] = inhibition of ADAM10 peptide cleavage – biochemical, FRET peptide substrate, recombinant human ADAM10, selectivity assay for ADAM17 exosite inhibitor project, dose response (AID 743259);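 further: ADAM10 enzyme cleaving a FRET peptide substrate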
H4 = assay: Luminescence Cell-Based Dose Response HTS to Identify Activators of 5'UTR Stem-Loop Driven Prion Protein mRNA Translation in H4 Neuroglioblastoma Cells. [Related pubchem assays: 1829 (Project Summary), 1814 (Primary HTS)]; type: functional; details: Homo sapiens
[10] = microbe, parasite or virus in culture; type: functional; details: Mycobacterium tuberculosis
[11] = MIN6 cell viability loss – mouse insulinoma, cytotoxicity control, dose response (AID 2122); type: functional;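 further: confirmatory high-throughput counterscreen run to flag cytotoxic compounds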
[12] = decrease of insulin promoter-GFP reporter – imaging, high-content screening, mouse beta cells (AID 1628); type: functional; details: MIN6
[13] = target: Disintegrin and metalloproteinase domain-containing protein 17 (Homo sapiens, UniProt P78536); assay: exosite inhibitors of ADAM17, dose response, biochemical (AID 743260)
[14] = Luminescence Cell-Based Dose Confirmation HTS to Identify Activators of 5'UTR Stem-Loop Driven Alpha-Synuclein mRNA Translation in H4 Neuroglioblastoma Cells. [Related pubchem assays: 1829 (Project Summary), 1814 (Primary HTS)]; type: functional
INS1 = assay: INS-1E survival protection against cytokine death – cell-based, luminescence, retest, dose response (AID 449756); type: functional; details: Rattus norvegicus;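 further: cell death triggered by IL-1 beta plus TNF-alpha plus IFN-gamma mixture; protective hits raise ATP signal compared with cytokine alone wells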
[15] = viability of uninfected HEp-2 cells – cell-based, HTS, cytotoxicity control for RSV inhibitor project, dose response (AID 2410); type: functional; details: human respiratory syncytial virus
[16] = Luminescence Cell-Based Dose Response HTS to Identify Activators of Luciferase Translation or Activity in H4 […] Cells. [Related pubchem assays: 1829 (Project Summary), 1814 (Primary HTS)]; type: functional
[17] = target: Intestinal-type alkaline phosphatase (Mus musculus, UniProt P24822); assay: PubChem AID 488874; type: functional
[18] = test system: Streptococcus sp. 'group A'; assay: Streptococcus pyogenes SK(-)GAS viability under kanamycin – luminescence, BacTiterGlo, confirmation, counter-screen for streptokinase expression inhibitor project, dose response (AID 1900); type: functional, organism-based
[19] = target: T3, Alkaline phosphatase, tissue-nonspecific isozyme (Homo sapiens, UniProt P05186); assay: activation of tissue-nonspecific alkaline phosphatase – biochemical, TNAP isozyme, human IAP uHTS hits, selectivity assay for human IAP activator project, dose response (AID 488886); type: functional;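 further: potency of compounds raising TNAP activity as a selectivity check on IAP activators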
T3 sequence (P05186 whole entry): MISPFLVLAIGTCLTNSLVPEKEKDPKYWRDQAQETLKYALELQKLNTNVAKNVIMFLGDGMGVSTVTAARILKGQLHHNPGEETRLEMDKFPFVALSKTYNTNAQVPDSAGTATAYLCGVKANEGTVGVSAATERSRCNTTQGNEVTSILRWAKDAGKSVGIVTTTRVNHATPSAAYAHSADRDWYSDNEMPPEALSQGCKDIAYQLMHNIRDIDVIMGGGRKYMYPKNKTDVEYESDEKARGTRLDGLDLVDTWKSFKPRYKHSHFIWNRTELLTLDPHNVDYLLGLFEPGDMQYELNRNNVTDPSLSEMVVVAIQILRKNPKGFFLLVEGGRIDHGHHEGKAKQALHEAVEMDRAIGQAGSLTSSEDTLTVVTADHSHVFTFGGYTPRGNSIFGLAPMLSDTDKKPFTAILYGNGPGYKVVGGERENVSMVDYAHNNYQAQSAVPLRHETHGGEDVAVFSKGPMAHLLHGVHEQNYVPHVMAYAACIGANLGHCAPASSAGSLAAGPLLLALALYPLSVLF

[20] = target: T4, Intestinal-type alkaline phosphatase (Homo sapiens, UniProt P09923); assay: human intestinal alkaline phosphatase activators, dose response, biochemical, luminescence, uHTS hits (AID 463120); type: functional
[21] = target: T4, Intestinal-type alkaline phosphatase; assay: activation of human intestinal alkaline phosphatase – biochemical, luminescent, uHTS hits, set 2, dose response (AID 488817); type: functional;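 further: potency of activators that raise enzyme activity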
[22] = target: T5, Heat shock factor protein 1 (Mus musculus, UniProt P38532); assay: decrease of HSF1-responsive luciferase luminescence – cell-based, NIH3T3, dose retest, confirmation (AID 2382); type: functional;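 further: NIH3T3 fibroblasts with HSF1-driven luciferase reporter stressed by proteasome inhibitor MG132; luminescence from HSF1-driven luciferase expression after 8 hours of MG132 stress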
T5 sequence (P38532 whole entry): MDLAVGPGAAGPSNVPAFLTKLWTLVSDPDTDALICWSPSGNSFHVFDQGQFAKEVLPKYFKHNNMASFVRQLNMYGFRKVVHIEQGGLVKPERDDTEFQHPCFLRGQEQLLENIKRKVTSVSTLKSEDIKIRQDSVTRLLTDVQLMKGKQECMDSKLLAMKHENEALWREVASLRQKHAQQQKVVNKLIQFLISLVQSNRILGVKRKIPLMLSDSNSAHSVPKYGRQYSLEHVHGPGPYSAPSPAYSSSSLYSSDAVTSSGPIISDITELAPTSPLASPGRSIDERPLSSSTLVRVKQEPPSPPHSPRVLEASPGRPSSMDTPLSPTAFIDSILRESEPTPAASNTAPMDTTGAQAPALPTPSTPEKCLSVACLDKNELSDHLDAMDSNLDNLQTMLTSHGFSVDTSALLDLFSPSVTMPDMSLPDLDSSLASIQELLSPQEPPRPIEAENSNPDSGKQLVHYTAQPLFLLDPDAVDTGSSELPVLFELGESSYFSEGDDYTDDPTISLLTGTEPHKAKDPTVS

Albumin = Albumin (Bos taurus, UniProt P02769); assay: Counterscreen for inhibitors of T-cell receptor (TCR)-CD3 interaction: Fluorescence-based biochemical high throughput dose response assay to identify inhibitors of T-cell receptor (TCR)-CD3 interaction using a TAMRA-labeled BSA probe.; type: functional
Nonstructural protein 1 = Nonstructural protein 1 (Influenza A virus, UniProt Q194T2); type: functional, Influenza A virus (A/California/07/2009(H1N1))
Streptococcus = assay: GAS UMAA2166 growth inhibition – luminescence, BacTiterGlo, counter-screen for streptokinase expression inhibitor project, dose response (AID 1915); type: functional, organism-based;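 further: potency for reduction of bacterial viability or growth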
[23] = target: Induced myeloid leukemia cell differentiation protein Mcl-1 (Homo sapiens, UniProt Q07820); type: functional
[24] = target: T3, Alkaline phosphatase, tissue-nonspecific isozyme; assay: inhibition of tissue-nonspecific alkaline phosphatase – biochemical, dose response (AID 488882); type: functional
[25] = target: T6, Rac GTPase-activating protein 1 (Homo sapiens, UniProt Q9H0H5); assay: blockers of MgcRacGAP-driven Rac1 GTP hydrolysis – biochemical, ADP Hunter fluorescence, primary and confirmatory, confirmation (AID 624330); type: functional
T6 sequence (Q9H0H5 whole entry): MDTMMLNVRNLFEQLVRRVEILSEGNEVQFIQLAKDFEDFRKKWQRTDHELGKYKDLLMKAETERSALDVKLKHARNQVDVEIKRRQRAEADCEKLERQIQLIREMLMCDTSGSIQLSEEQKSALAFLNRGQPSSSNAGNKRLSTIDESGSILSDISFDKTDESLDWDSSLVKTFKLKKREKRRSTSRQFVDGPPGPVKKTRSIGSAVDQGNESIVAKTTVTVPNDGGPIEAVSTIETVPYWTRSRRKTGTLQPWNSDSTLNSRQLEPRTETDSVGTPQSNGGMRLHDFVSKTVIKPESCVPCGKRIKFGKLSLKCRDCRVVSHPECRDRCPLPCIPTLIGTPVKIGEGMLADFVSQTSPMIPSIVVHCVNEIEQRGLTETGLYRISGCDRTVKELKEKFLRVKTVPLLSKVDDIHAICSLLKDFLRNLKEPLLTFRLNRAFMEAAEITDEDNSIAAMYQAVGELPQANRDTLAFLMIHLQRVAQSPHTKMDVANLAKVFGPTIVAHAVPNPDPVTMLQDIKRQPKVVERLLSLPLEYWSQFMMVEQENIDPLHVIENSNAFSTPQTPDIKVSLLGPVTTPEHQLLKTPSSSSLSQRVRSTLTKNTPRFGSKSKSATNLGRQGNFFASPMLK

[26] = viability loss in HeLa cells – cytotoxicity control for MgcRacGAP inhibitor project, dose response (AID 624300); type: functional

T4 sequence (P09923 whole entry): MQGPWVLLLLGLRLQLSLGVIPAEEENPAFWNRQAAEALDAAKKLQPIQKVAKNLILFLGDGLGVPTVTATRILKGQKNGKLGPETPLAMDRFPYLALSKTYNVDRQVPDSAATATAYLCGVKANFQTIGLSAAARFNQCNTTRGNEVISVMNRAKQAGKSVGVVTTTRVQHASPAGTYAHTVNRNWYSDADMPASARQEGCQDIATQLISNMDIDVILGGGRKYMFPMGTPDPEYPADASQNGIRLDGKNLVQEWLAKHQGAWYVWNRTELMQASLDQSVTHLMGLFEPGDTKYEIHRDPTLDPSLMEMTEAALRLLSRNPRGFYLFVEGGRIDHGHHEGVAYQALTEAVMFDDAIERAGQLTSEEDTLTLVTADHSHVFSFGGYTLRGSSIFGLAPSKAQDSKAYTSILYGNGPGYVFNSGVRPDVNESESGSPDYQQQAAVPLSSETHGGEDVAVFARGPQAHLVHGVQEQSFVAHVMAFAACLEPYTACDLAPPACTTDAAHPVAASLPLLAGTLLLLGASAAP
Intestinal-type alkaline phosphatase (Mus musculus, UniProt P24822), sequence (P24822 whole entry): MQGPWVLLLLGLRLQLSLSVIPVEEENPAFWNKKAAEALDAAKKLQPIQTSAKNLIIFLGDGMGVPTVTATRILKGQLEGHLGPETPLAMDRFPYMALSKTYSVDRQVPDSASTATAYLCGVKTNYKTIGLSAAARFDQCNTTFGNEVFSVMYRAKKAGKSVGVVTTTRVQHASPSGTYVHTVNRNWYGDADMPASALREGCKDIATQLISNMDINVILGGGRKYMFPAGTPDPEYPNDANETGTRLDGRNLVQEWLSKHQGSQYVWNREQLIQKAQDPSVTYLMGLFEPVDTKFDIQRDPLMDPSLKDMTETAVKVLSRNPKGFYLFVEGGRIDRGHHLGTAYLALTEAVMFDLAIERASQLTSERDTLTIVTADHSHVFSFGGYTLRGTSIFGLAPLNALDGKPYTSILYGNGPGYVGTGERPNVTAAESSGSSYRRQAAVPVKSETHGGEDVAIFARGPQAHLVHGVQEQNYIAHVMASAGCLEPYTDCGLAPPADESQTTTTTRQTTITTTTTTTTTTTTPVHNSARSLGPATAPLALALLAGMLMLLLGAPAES
Nonstructural protein 1, sequence (Q194T2 whole entry): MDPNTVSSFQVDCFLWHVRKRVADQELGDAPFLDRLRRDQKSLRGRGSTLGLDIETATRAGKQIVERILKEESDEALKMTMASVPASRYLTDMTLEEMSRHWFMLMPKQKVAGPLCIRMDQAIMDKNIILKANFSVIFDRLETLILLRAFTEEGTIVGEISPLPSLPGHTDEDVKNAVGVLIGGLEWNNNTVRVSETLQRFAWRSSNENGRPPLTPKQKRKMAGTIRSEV
Tumor necrosis factor, sequence (P01375 whole entry): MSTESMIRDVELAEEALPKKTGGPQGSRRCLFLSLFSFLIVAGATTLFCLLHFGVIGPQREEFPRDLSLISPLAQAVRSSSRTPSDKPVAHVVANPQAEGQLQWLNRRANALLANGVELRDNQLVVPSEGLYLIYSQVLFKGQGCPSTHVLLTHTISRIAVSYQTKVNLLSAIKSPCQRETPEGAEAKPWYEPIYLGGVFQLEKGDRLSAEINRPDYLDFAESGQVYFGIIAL
Disintegrin and metalloproteinase domain-containing protein 17, sequence (P78536 whole entry, the tested form may be a part): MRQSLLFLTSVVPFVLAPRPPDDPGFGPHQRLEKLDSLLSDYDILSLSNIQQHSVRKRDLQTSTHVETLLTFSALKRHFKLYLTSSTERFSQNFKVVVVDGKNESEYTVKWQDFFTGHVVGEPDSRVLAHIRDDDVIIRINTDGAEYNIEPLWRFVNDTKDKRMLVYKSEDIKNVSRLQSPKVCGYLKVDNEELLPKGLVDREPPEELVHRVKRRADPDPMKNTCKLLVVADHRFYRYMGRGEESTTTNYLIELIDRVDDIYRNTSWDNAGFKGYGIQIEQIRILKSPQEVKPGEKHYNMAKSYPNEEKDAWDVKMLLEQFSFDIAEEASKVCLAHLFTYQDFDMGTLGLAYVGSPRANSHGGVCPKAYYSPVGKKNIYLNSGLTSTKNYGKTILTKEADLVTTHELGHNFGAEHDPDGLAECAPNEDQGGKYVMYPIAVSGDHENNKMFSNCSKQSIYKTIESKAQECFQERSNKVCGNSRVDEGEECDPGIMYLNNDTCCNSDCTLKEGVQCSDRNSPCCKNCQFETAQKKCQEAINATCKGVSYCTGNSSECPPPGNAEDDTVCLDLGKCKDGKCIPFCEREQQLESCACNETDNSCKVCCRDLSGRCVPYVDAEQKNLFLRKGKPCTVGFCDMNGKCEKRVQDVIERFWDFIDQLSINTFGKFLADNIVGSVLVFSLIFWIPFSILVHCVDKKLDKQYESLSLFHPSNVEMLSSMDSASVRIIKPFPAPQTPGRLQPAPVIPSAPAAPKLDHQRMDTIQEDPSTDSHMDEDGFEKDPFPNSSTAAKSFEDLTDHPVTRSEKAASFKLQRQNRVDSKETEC
Nucleotide-binding oligomerization domain-containing protein 2, sequence (Q9HC29 whole entry, the tested form may be a part): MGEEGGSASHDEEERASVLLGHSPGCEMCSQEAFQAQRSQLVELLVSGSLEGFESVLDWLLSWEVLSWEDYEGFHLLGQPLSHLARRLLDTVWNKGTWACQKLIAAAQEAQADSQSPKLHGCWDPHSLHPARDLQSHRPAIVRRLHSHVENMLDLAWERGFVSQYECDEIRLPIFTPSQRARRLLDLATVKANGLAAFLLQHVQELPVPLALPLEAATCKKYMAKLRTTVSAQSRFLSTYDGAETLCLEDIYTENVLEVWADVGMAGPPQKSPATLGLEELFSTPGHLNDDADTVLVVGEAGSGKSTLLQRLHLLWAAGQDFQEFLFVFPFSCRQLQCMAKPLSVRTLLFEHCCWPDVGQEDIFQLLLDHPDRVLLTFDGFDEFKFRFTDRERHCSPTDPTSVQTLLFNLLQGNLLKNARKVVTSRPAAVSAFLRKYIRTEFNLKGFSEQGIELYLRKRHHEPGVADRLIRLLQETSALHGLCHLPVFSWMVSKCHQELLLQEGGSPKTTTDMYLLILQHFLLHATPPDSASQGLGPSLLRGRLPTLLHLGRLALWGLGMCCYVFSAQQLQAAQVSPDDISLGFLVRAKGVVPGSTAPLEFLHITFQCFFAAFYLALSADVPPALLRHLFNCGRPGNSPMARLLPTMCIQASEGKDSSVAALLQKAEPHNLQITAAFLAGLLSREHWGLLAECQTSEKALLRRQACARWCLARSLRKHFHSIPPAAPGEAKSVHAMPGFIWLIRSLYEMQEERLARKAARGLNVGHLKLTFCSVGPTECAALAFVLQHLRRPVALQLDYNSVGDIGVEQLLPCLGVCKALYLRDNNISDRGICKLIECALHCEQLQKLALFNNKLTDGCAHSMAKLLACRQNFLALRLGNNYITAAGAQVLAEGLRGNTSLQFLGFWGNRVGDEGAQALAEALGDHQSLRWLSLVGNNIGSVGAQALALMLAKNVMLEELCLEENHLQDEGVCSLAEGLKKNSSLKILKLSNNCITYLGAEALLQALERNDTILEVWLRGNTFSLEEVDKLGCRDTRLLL
Induced myeloid leukemia cell differentiation protein Mcl-1, sequence (Q07820 whole entry): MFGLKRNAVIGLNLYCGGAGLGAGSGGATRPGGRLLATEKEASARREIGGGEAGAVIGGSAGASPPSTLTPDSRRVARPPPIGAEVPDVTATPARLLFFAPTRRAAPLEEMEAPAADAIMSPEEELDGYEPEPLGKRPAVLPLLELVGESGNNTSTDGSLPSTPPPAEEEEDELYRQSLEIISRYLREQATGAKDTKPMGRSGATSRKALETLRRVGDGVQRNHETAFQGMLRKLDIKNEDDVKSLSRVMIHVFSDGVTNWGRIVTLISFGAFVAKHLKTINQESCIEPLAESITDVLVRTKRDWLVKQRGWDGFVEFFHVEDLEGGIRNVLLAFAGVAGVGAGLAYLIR
Albumin, sequence (P02769 whole entry): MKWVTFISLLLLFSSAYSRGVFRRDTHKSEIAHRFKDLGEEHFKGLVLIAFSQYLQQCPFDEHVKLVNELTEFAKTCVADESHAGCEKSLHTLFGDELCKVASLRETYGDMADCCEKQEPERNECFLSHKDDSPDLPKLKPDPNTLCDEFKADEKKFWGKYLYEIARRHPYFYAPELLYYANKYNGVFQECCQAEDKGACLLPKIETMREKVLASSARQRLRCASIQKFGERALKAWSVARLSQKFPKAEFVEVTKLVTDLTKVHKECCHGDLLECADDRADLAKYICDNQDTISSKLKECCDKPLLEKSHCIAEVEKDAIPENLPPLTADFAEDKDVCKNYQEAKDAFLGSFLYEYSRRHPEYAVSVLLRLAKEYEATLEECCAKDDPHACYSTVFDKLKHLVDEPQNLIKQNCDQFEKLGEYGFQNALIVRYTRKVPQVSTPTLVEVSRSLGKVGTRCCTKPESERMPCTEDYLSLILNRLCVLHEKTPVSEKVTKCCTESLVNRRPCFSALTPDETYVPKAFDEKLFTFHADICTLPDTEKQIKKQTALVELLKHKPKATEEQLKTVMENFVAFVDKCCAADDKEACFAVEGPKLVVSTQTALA

SMILES: CCCCn1c(=O)c(C(=O)Nc2cnccn2)c(O)c2ccccc21
- IC50 (HEK293 [1]): > 20 µM (inactive)
- IC50 (HEK293 [2]): > 20 µM (inactive)
- IC50 (HEK293 [3]): 7.07 µM (active)
- EC50 (HEK293 [4]): 3.1 µM (active)
- IC50 [5]: 7.68 µM (active)
- Absolute IC50 (XBP1) (X-box-binding protein 1): 10 µM
- EC50 [6]: 1.72 µM (active)
- IC50 (HEK293 [7]): > 20 µM (inactive)
- IC50 (Tumor necrosis factor): 4.92 µM (active)
- IC50 (HEK293 [8]): > 20 µM (inactive)

SMILES: O=C(Nc1nc2ccc(F)cc2s1)C1CCN(S(=O)(=O)c2cc([N+](=O)[O-])ccc2Cl)CC1
- IC50 [9]: > 7.72 µM (active)
- EC50 (H4): 4.7 µM (active)
- CC50 [10]: 20.2 µM (active)
- IC50 [11]: 2.37 µM (active)
- IC50 [12]: 2.34 µM (active)
- IC50 [13]: > 69.5 µM (inactive)
- EC50 [14]: 14.7 µM (active)
- AC50 (INS1): 8.24 µM (active)
- CC50 [15]: 12 µM (active)
- EC50 [16]: 25.8 µM (active)

SMILES: CCOC(=O)c1c(C)[nH]c(C(=O)N/N=C/c2cc([N+](=O)[O-])ccc2O)c1C
- IC50 [17]: > 100 µM (inactive)
- EC50 [18]: 2.33 µM (active)
- EC50 [19]: 22.3 µM (active)
- EC50 [20]: 12.1 µM (active)
- EC50 [21]: 11.4 µM (active)
- EC50 [22]: 0.86 µM (active)
- IC50 (Albumin): > 94.1 µM (inactive)
- IC50 (Nonstructural protein 1): 44 µM (active)
- EC50 (Streptococcus): 2.97 µM (active)

SMILES: CC1C(=O)NN=C1C(=O)N/N=C\c1ccc(O)cc1O (configuration not stated)
- IC50 [23]: 7.72 µM (active)
- IC50 [17]: > 100 µM (inactive)
- EC50 [20]: 8.3 µM (active)
- EC50 [21]: 11.3 µM (active)
- IC50 [24]: 7.32 µM (active)
- IC50 (Nonstructural protein 1): 15.9 µM (active)
- IC50 [25]: 45.4 µM (active)
- CC50 [26]: 100 µM (active)
